Experimental data from PubChem BioAssay AID2060328 (Molecular Pharmacology Branch, DTP, NCI, 2025).

Tested on: MDA-MB-231 multicell spheroids, viability (%T/C)
Experiment: Anticancer human tumor MDA-MB-231 cell line growth inhibition [IpAb];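 also: viability read after seven days of drug exposure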;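 as to viability, T/C: 100% = DMSO vehicle control viability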
Details: for IC50: curve of first compound; for viability, T/C: stronger effect = lower value
How it was run: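 Combinations with ipatasertib or abemaciclib were tested on tumour spheroids holding HUVEC (25%) and MSC (15%) alongside 60% malignant cells. Top concentration was at or near clinical Cmax (10 microM if undefined), descending in half-log steps.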

[1] = second compound 0.01 µM, first compound 0.0316 µM
[2] = second compound 0.01 µM, first compound 0.1 µM
[3] = second compound 0.01 µM, first compound 0.316 µM
[4] = second compound 0.01 µM, first compound 1 µM
[5] = second compound 0.01 µM, first compound 3.16 µM
[6] = second compound 0.01 µM, first compound 10 µM
[7] = second compound 0.0316 µM, first compound 0.0316 µM
[8] = second compound 0.0316 µM, first compound 0.1 µM
[9] = second compound 0.0316 µM, first compound 0.316 µM
[10] = second compound 0.0316 µM, first compound 1 µM
[11] = second compound 0.0316 µM, first compound 3.16 µM
[12] = second compound 0.0316 µM, first compound 10 µM
[13] = second compound 0.1 µM, first compound 0.0316 µM
[14] = second compound 0.1 µM, first compound 0.1 µM
[15] = second compound 0.1 µM, first compound 0.316 µM
[16] = second compound 0.1 µM, first compound 1 µM
[17] = second compound 0.1 µM, first compound 3.16 µM
[18] = second compound 0.1 µM, first compound 10 µM
[19] = second compound 0.316 µM, first compound 0.0316 µM
[20] = second compound 0.316 µM, first compound 0.1 µM
[21] = second compound 0.316 µM, first compound 0.316 µM
[22] = second compound 0.316 µM, first compound 1 µM
[23] = second compound 0.316 µM, first compound 3.16 µM
[24] = second compound 0.316 µM, first compound 10 µM
[25] = second compound 1 µM, first compound 0.0316 µM
[26] = second compound 1 µM, first compound 0.1 µM
[27] = second compound 1 µM, first compound 0.316 µM
[28] = second compound 1 µM, first compound 1 µM
[29] = second compound 1 µM, first compound 3.16 µM
[30] = second compound 1 µM, first compound 10 µM

Structure (SMILES)	IC50 (second compound 0.01 µM) [nM]	IC50 (second compound 0.0316 µM) [nM]	IC50 (second compound 0.1 µM) [nM]	IC50 (second compound 0.316 µM) [nM]	IC50 (second compound 1 µM) [nM]	viability, T/C [1] [%]	viability, T/C [2] [%]	viability, T/C [3] [%]	viability, T/C [4] [%]	viability, T/C [5] [%]	viability, T/C [6] [%]	viability, T/C [7] [%]	viability, T/C [8] [%]	viability, T/C [9] [%]	viability, T/C [13] [%]	viability, T/C [14] [%]	viability, T/C [19] [%]	viability, T/C [20] [%]	viability, T/C [25] [%]	viability, T/C [26] [%]	other results
C=CC(=O)N1CCN(c2nc(=O)n(-c3c(C)ccnc3C(C)C)c3nc(-c4c(O)cccc4F)c(F)cc23)C(C)C1 (stereo not given) + CCN1CCN(Cc2ccc(Nc3ncc(F)c(-c4cc(F)c5nc(C)n(C(C)C)c5c4)n3)nc2)CC1	> 10000	> 10000	> 10000	> 10000	> 10000	91.9	93.1	107	120	111	76.3	78.5	88.4	89.9	61.3	66.2	48.3	51.3	50.8	56.2	viability, T/C [10]: 101%; viability, T/C [11]: 92.3%; viability, T/C [12]: 66.4%; viability, T/C [15]: 73.8%; viability, T/C [16]: 84.4%; viability, T/C [17]: 74%; viability, T/C [18]: 59.1%; viability, T/C [21]: 58.6%; viability, T/C [22]: 65.9%; viability, T/C [23]: 60.7%; viability, T/C [24]: 59%; viability, T/C [27]: 61.1%; viability, T/C [28]: 67.1%; viability, T/C [29]: 71.7%; viability, T/C [30]: 61.8%
Cn1ncc(Cl)c1-c1cc(C(=O)NC(CN)Cc2cccc(F)c2)sc1Cl (stereo not given) + CCN1CCN(Cc2ccc(Nc3ncc(F)c(-c4cc(F)c5nc(C)n(C(C)C)c5c4)n3)nc2)CC1	864	378	76.6	< 31.6	< 31.6	87.3	77.6	66.7	45.7	27.5	0.12	73.4	64.8	51.9	52.6	52	43.4	42.7	44.2	46.3	viability, T/C [10]: 36.4%; viability, T/C [11]: 23%; viability, T/C [12]: 0.11%; viability, T/C [15]: 40%; viability, T/C [16]: 30.2%; viability, T/C [17]: 20.4%; viability, T/C [18]: 0.87%; viability, T/C [21]: 32.9%; viability, T/C [22]: 30.5%; viability, T/C [23]: 26%; viability, T/C [24]: 0.53%; viability, T/C [27]: 43.2%; viability, T/C [28]: 38.7%; viability, T/C [29]: 43.6%; viability, T/C [30]: 0.79%
Cn1ncnc1[C@H]1c2n[nH]c(=O)c3cc(F)cc(c23)N[C@@H]1c1ccc(F)cc1 + CCN1CCN(Cc2ccc(Nc3ncc(F)c(-c4cc(F)c5nc(C)n(C(C)C)c5c4)n3)nc2)CC1	> 100	> 100	37.6	< 0.316	< 0.316	69.2	65.9					59.1	55		51.5	48.7	42.9	40.4	48.5	46.9	viability, T/C (second compound 0.01 µM, first compound 0.000316 µM): 86.5%; viability, T/C (second compound 0.01 µM, first compound 0.001 µM): 85.5%; viability, T/C (second compound 0.01 µM, first compound 0.00316 µM): 79.6%; viability, T/C (second compound 0.01 µM, first compound 0.01 µM): 70.9%; viability, T/C (second compound 0.0316 µM, first compound 0.000316 µM): 74.8%; viability, T/C (second compound 0.0316 µM, first compound 0.001 µM): 72.1%; viability, T/C (second compound 0.0316 µM, first compound 0.00316 µM): 65.2%; viability, T/C (second compound 0.0316 µM, first compound 0.01 µM): 60%; viability, T/C (second compound 0.1 µM, first compound 0.000316 µM): 58.8%; viability, T/C (second compound 0.1 µM, first compound 0.001 µM): 56.4%; viability, T/C (second compound 0.1 µM, first compound 0.00316 µM): 51.5%; viability, T/C (second compound 0.1 µM, first compound 0.01 µM): 51.1%; viability, T/C (second compound 0.316 µM, first compound 0.000316 µM): 46.5%; viability, T/C (second compound 0.316 µM, first compound 0.001 µM): 46.6%; viability, T/C (second compound 0.316 µM, first compound 0.00316 µM): 43.9%; viability, T/C (second compound 0.316 µM, first compound 0.01 µM): 43.3%; viability, T/C (second compound 1 µM, first compound 0.000316 µM): 48%; viability, T/C (second compound 1 µM, first compound 0.001 µM): 49.3%; viability, T/C (second compound 1 µM, first compound 0.00316 µM): 50.2%; viability, T/C (second compound 1 µM, first compound 0.01 µM): 46.3%
